Measurements reported in patent US8426453B2 (Astellas Pharma Inc., priority 2006, dated 2013).

Experiments:
[1] = target: T1, xanthine oxidase (derived from butter milk, by Sigma) (Bos taurus, UniProt P80457); assay: Xanthine oxidase inhibiting activity (pterin fluorescence assay); type: biochemical; details: xanthine oxidase 0.03 units/ml, pterin 5 μM, room temperature
T1 construct: xanthine oxidase (derived from butter milk, by Sigma); purchased Sigma; host or cells: butter milk (natural source)
Procedure: A test compound was dissolved in DMSO (by Nacalai) to have a concentration of 10 mM, and then just before use, its concentration was adjusted to a desired one.
The xanthine oxidase inhibitory activity of the compound of the present invention was evaluated according to a partly modified method of a method described in a reference “Free Radic. Biol. Med. 6, 607-615, 1992”. Concretely, xanthine oxidase (derived from butter milk, by Sigma) was mixed with 50 mM phosphate buffer to be 0.03 units/ml, and applied to a 96-well plate in an amount of 50 μl/well. The test compound diluted to have a final concentration was added to the plate in an amount of 2 μl/well, and processed at room temperature for 20 minutes. Pterin (by Sigma) was added to it to have a final concentration of 5 μM in an amount of 50 μl/well, and reacted at room temperature for 10 minutes. Under a condition of excitation at 345 nm and emission at 390 nm (pterin is oxidized by xanthine oxidase to give isoxanthopterin, and under the condition it emits light), the sample was analyzed using a microplate reader sapphire (by Tacan).
The light emission by isoxanthopterin in the presence or absence of xanthine oxidase was defined as 0% inhibition and 100% inhibition, respectively, and the concentration (IC50) of the test compound for 50% inhibition was computed.

SD rats [2] = assay: Gastric ulcer model (diclofenac-induced ulcer in gastric corpus); type: in vivo; details: 1 hour before diclofenac 40 mg/kg oral, measured 6 hours after diclofenac
Procedure: A test compound was suspended in a 0.5% methyl cellulose (MC) solution to prepare a chemical liquid having a concentration 5 ml/kg; and this was orally administered to SD rats (n=12 in each group). The test compound was controlled to be 10 mg/kg or 30 mg/kg. A control group was separately prepared, in which 5 ml/kg of the 0.5% MC solution was orally administered to the rats. After 1 hour, 40 mg/kg of NSAID, diclofenac (by Sigma) was orally administered to all rats of all groups, as a suspension in 0.5% MC solution (5 ml/kg). In 6 hours after the diclofenac administration, the length of the ulcer formed in the gastric corpus was measured using a stereomicroscope (by Nikon) and a micrometer (by Olympus), and the data of 12 cases were averaged. The antiulceration potency (%) of the test compound was computed according to the following formula: Antiulceration Potency (%): [1−(mean ulcer length of compound-administered group/mean ulcer length of 0.5% MC-administered group)]×100.

SD rats [3] = assay: Small intestine ulcer model (indomethacin-induced ulcer); type: in vivo; details: 10 mg/kg oral, 1 hour before and 9 hours after indomethacin 10 mg/kg oral, measured after 24 hours
Procedure: A test compound was suspended in a 0.5% methyl cellulose (MC) solution to prepare a chemical liquid having a concentration 5 ml/kg; and this was orally administered to SD rats (n=10 in each group). The test compound was controlled to be 10 mg/kg in every case. A control group was separately prepared, in which 5 ml/kg of the 0.5% MC solution was orally administered to the rats. After 1 hour, 10 mg/kg of NSAID, indomethacin (by Sigma) was orally administered to the rats, as a suspension in 0.5% MC solution (5 ml/kg). In 9 hours after the indomethacin administration, the test compound was again orally administered to every rat in the same amount as previously; and after 24 hours, the area of the ulcer formed in the small intestine was measured using a stereomicroscope (by Nikon) and a micrometer (by Olympus), and the data of 10 cases were averaged. The antiulceration potency (%) of the test compound was computed according to the following formula: Antiulceration Potency (%): [1−(mean ulcer area of compound-administered group/mean ulcer area of 0.5% MC-administered group)]×100.

T1 sequence (P80457 whole entry): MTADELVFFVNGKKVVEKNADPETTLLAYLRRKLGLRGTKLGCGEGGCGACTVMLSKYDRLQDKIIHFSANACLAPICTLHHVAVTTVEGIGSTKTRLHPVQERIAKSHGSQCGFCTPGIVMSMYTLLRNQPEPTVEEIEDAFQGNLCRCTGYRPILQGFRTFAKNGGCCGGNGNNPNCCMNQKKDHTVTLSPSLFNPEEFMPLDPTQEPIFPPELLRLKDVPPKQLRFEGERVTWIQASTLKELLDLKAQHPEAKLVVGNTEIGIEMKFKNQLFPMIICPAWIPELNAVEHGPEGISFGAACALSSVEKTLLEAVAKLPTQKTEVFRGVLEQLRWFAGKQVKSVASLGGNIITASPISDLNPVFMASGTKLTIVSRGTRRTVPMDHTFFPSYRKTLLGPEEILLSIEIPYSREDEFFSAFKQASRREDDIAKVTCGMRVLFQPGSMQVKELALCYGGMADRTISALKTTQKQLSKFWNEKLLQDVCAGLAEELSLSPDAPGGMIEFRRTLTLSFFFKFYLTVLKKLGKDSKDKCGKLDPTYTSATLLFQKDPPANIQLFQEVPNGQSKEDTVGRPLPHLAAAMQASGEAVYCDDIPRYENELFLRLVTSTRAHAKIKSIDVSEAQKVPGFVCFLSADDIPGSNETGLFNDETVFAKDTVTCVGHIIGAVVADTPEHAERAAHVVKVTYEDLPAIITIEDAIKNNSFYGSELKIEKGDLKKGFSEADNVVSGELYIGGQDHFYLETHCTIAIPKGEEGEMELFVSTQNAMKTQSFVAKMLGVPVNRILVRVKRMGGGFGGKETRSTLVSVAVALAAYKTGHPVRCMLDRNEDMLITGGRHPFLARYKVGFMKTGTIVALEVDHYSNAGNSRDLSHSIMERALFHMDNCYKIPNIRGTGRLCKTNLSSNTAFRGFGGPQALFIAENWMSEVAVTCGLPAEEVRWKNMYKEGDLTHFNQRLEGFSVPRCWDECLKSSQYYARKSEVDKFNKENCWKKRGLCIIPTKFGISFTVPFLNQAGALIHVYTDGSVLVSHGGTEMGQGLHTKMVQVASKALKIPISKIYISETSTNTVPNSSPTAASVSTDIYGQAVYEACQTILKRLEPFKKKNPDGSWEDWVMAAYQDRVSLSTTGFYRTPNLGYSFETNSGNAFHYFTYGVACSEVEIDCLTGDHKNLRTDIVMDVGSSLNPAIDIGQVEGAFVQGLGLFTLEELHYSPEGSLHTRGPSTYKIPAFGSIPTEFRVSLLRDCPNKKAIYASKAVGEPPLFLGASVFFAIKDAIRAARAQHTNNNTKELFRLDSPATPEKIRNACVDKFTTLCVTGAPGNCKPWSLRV

Row | IC50 [1] [nM] | SMILES | also measured
1 | ≤ 20 | Cc1cccc(-c2ccc(-c3nc(C)c(C(=O)O)s3)cc2C#N)c1 [compound 243] | 
2 | ≤ 20 | N#Cc1cc(-c2cc(C(=O)O)ccn2)ccc1-c1ccco1 [compound 145] | 
3 | ≤ 20 | N#Cc1cc(-c2cc(C(=O)O)ccn2)ccc1-c1ccc(Oc2ccccc2)cc1 [compound 166] | 
4 |  | CC(C)(C)COc1ccc(-n2cc(C(=O)O)cn2)cc1C#N [Compound B, 1-(3-cyano-4-neopentyloxyphenyl)-1H-pyrazole-4-carboxylic acid] | Antiulceration potency (inhibitory potency), mean ulcer length in gastric corpus vs 0.5% MC group (SD rats [2]; 30 mg/kg oral): 43%
5 | ≤ 20 | Cc1nc(-c2ccc(-c3ccccc3)c(C#N)c2)sc1C(=O)O [compound 237] | Antiulceration potency (inhibitory potency), mean ulcer area in small intestine vs 0.5% MC group (SD rats [3]): 59%; Antiulceration potency (inhibitory potency), mean ulcer length in gastric corpus vs 0.5% MC group (SD rats [2]; 10 mg/kg oral): 32%
6 | ≤ 20 | Cc1ccc(-c2ccc(-n3cc(C(=O)O)cn3)cc2C#N)cc1 [compound 252] | 
7 | ≤ 20 | COc1ccccc1-c1ccc(-c2cc(C(=O)O)ccn2)cc1C#N [compound 138] | 
8 | ≤ 20 | N#Cc1cc(-c2cc(C(=O)O)ccn2)ccc1-c1ccc(F)cc1 [compound 133] | 
9 |  | Cc1nc(-c2ccc(OCC(C)C)c(C#N)c2)sc1C(=O)O [Compound A, 2-(3-cyano-4-isobutyloxyphenyl)-4-methyl-1,3-thiazole-5-carboxylic acid] | Antiulceration potency (inhibitory potency), mean ulcer length in gastric corpus vs 0.5% MC group (SD rats [2]; 30 mg/kg oral): 36%
10 | 6.3 | CC(C)COc1ccc(-c2cc(C(=O)O)ccn2)cc1C(F)(F)F [Example 30] | 
11 |  | Oc1ncnc2[nH]ncc12 [allopurinol, reference compound] | Antiulceration potency (inhibitory potency), mean ulcer area in small intestine vs 0.5% MC group (SD rats [3]): no inhibitory potency was confirmed; Antiulceration potency (inhibitory potency), mean ulcer length in gastric corpus vs 0.5% MC group (SD rats [2]; 30 mg/kg oral): no inhibitory potency was confirmed
12 | 1.5 | N#Cc1cc(-c2ccc(C(=O)O)s2)cc(F)c1OC1CCCC1 [Example 119] | 
13 | ≤ 20 | N#Cc1cc(-n2cc(C(=O)O)cn2)ccc1-c1ccccc1 [compound 251] | Antiulceration potency (inhibitory potency), mean ulcer area in small intestine vs 0.5% MC group (SD rats [3]): 41%; Antiulceration potency (inhibitory potency), mean ulcer length in gastric corpus vs 0.5% MC group (SD rats [2]; 30 mg/kg oral): 43%
14 | ≤ 20 | N#Cc1cc(-c2cc(C(=O)O)ccn2)ccc1-c1ccc2c(c1)OCO2 [compound 169] | 
15 | ≤ 20 | N#Cc1cc(-c2ncc(C(=O)O)s2)ccc1-c1ccccc1 [compound 250] | Antiulceration potency (inhibitory potency), mean ulcer area in small intestine vs 0.5% MC group (SD rats [3]): 73%
16 | ≤ 20 | N#Cc1ccc(-c2ccc(-c3cc(C(=O)O)ccn3)cc2C#N)cc1 [compound 143] | 
17 | ≤ 20 | CC(C)(C)c1ccc(-c2ccc(-c3cc(C(=O)O)ccn3)cc2C#N)cc1 [compound 153] | 
18 | ≤ 20 | N#Cc1cc(-c2cc(C(=O)O)ccn2)ccc1-n1ncc2ccccc21 [compound 179] | 
19 | ≤ 20 | N#Cc1cc(-c2cc(C(=O)O)ccn2)ccc1-c1ccsc1 [compound 141] | 
20 | ≤ 20 | Cc1nc(-c2ccc(-c3ccc(OC(F)(F)F)cc3)c(C#N)c2)sc1C(=O)O [compound 240] | 
21 | 2.5 | CC(C)CSc1ccc(-c2cc(C(=O)O)ccn2)cc1C#N [Example 53] | 
22 |  | N#Cc1cc(-c2cc(C(=O)[O-])ccn2)ccc1-c1ccccc1.[Na+] [compound 8] | Antiulceration potency (inhibitory potency), mean ulcer area in small intestine vs 0.5% MC group (SD rats [3]): 29%; Antiulceration potency (inhibitory potency), mean ulcer length in gastric corpus vs 0.5% MC group (SD rats [2]; 30 mg/kg oral): 72%
